Reference: ChEMBL document CHEMBL1201862, “PubChem BioAssay data set” (2004)
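Cultured in 96-well plates, cells were exposed to test compound for 48 hours across five concentrations. GI50 is the concentration that inhibits growth by half.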 The source made the active and inactive calls. Cut-off read from the data, not from the text of the source: active = GI50 up to about 1.1 µM and inactive = higher.

Assays:
Assay in all cases: NCI tumour cell line growth inhibition, 48 h
MCF7 = test system: MCF7
RPMI-8226 = test system: RPMI-8226
SF-268 = test system: SF-268
HOP-92 = test system: HOP-92
NCI/ADR-RES = test system: NCI/ADR-RES
PC-3 = test system: PC-3
A498 = test system: A498
SK-MEL-28 = test system: SK-MEL-28
HOP-62 = test system: HOP-62
HCT-116 = test system: HCT-116
MDA-MB-231 = test system: MDA-MB-231
HT-29 = test system: HT-29
OVCAR-3 = test system: OVCAR-3
DU-145 = test system: DU-145
EKVX = test system: EKVX
IGROV-1 = test system: IGROV-1
SK-MEL-2 = test system: SK-MEL-2
LOX IMVI = test system: LOX IMVI
CCRF-CEM = test system: CCRF-CEM

SMILES | GI50 (MCF7) | GI50 (RPMI-8226) | GI50 (SF-268) | GI50 (HOP-92) | GI50 (NCI/ADR-RES) | GI50 (PC-3) | GI50 (A498) | GI50 (SK-MEL-28) | GI50 (HOP-62) | GI50 (HCT-116) | GI50 (MDA-MB-231) | GI50 (HT-29) | GI50 (OVCAR-3) | GI50 (DU-145) | GI50 (EKVX) | GI50 (IGROV-1) | GI50 (SK-MEL-2) | GI50 (LOX IMVI) | GI50 (CCRF-CEM)
c1ccc2c[n+](CCCCCCCCCC[n+]3ccc4ccccc4c3)ccc2c1 | > 10 µM (inactive) | > 10 µM (inactive) | > 10 µM (inactive) | > 10 µM (inactive) | > 10 µM (inactive) | > 7.52 µM (inactive) | > 10 µM (inactive) | 7.43 µM (inactive) | > 10 µM (inactive) | > 10 µM (inactive) | > 10 µM (inactive) | > 5.37 µM (inactive) | > 4.35 µM (inactive) | > 4.81 µM (inactive) | 2.07 µM (inactive) | > 10 µM (inactive) | > 10 µM (inactive) | > 10 µM (inactive) | > 10 µM (inactive)
Oc1nc2c(c(-c3ccc(Br)cc3)n1)COC/C2=C\c1ccc(Br)cc1 | 47.4 µM (inactive) | > 50 µM (inactive) | > 50 µM (inactive) | > 50 µM (inactive) | > 50 µM (inactive) | > 50 µM (inactive) | > 50 µM (inactive) | > 50 µM (inactive) | > 50 µM (inactive) | > 50 µM (inactive) | > 50 µM (inactive) | > 50 µM (inactive) | > 50 µM (inactive) | > 50 µM (inactive) | > 50 µM (inactive) | > 50 µM (inactive) | > 50 µM (inactive) | > 50 µM (inactive) | > 50 µM (inactive)
COC1CCC(O)C(/C=C/[N+](=O)[O-])C1 (centres undefined) | 2.88 µM (inactive) | 1.55 µM (inactive) | 3.37 µM (inactive) | 12.5 µM (inactive) | 15 µM (inactive) | 2.06 µM (inactive) | 3.99 µM (inactive) | 13.4 µM (inactive) | 5.41 µM (inactive) | 1.93 µM (inactive) | 4.82 µM (inactive) | 3.37 µM (inactive) | 8.3 µM (inactive) | 3.64 µM (inactive) | 4.56 µM (inactive) | 1.66 µM (inactive) | 10.2 µM (inactive) | 1.54 µM (inactive) | 2.69 µM (inactive)
CN(C)CCNC(=O)c1cccc2c(NCCN(C)C)c3ccccc3nc12 | 2.36 µM (inactive) | 2.41 µM (inactive) | 3.07 µM (inactive) | 2.16 µM (inactive) | 7.78 µM (inactive) | 2.42 µM (inactive) | 1.94 µM (inactive) | 13.7 µM (inactive) | 3.19 µM (inactive) | 1.48 µM (inactive) | 2 µM (inactive) | 1.61 µM (inactive) | 2.39 µM (inactive) | 3.82 µM (inactive) | 2.99 µM (inactive) | 2.68 µM (inactive) | 5.28 µM (inactive) | 1.55 µM (inactive) | 2 µM (inactive)
O=C1c2c(Br)sc(Br)c2[C@H]2OC(=S)N[C@@H]12 | 9.38 µM (inactive) | 4.68 µM (inactive) | 3.27 µM (inactive) | 11.9 µM (inactive) | 8.51 µM (inactive) | 4.07 µM (inactive) | 18.3 µM (inactive) | 2.79 µM (inactive) | 13.5 µM (inactive) | 2.81 µM (inactive) | 12.1 µM (inactive) | 2 µM (inactive) | 2.6 µM (inactive) | 12.8 µM (inactive) | 4.89 µM (inactive) | 10.1 µM (inactive) | 13.6 µM (inactive) | 3.02 µM (inactive) | 0.624 µM (active)
COc1ccc2c(-c3csc(-c4c[nH]c5ccccc45)n3)c[nH]c2c1 | 4.36 µM (inactive) | 3.77 µM (inactive) | 4.14 µM (inactive) | 7.46 µM (inactive) | 6.61 µM (inactive) | 4.7 µM (inactive) | 8.65 µM (inactive) | 14.6 µM (inactive) | 16.8 µM (inactive) | 3.68 µM (inactive) | 5.2 µM (inactive) | 2.34 µM (inactive) | 13.9 µM (inactive) | 9.18 µM (inactive) | 1.37 µM (inactive) | 5.58 µM (inactive) | 14.5 µM (inactive) | 2.75 µM (inactive) | 4.36 µM (inactive)
